Molecules are shown by their SMILES. Bounds are passed on as bounds.

T1 sequence (P20309 whole entry): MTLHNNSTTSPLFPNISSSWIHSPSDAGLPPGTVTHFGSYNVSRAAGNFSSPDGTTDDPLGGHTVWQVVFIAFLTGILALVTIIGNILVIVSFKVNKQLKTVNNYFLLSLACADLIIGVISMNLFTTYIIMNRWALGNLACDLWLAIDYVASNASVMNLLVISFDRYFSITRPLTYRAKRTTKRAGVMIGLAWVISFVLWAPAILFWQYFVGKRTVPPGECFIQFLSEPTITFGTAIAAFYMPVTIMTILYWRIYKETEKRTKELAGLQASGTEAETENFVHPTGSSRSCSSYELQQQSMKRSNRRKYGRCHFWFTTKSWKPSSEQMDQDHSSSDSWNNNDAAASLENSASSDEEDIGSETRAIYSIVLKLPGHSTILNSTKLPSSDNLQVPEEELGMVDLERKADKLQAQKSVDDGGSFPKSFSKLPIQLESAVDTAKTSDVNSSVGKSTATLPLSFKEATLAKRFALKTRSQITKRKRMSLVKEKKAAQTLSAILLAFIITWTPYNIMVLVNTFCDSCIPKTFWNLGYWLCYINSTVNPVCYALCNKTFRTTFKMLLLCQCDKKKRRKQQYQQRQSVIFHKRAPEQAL

One test concerns the target T1, human muscarinic receptors (M3) (Homo sapiens, UniProt P20309).
T1 construct: purchased
The test is described as follows: Muscarinic receptor radioligand binding assay ([3H]-NMS). The note with it: membranes expressing human M3 receptor, read-out: Binding potency (M3 binding potencies, Ki values). As to the method: Radioligand binding studies utilising [^3H]-N-methyl scopolamine ([^3H]-NMS) and commercially available cell membranes expressing the human muscarinic receptors (M2 and M3) were used to assess the affinity of muscarinic antagonists for M2 and M3 receptors. Membranes in TRIS buffer were incubated in 96-well plates with [^3H]-NMS and M3 antagonist at various concentrations for 3 hours. Membranes and bound radioligand were then harvested by filtration and allowed to dry overnight. Scintillation fluid was then added and the bound radioligand counted using a Canberra Packard Topcount scintillation counter.
Take `C[N+](C)(CCCOc1ccccc1)C1C2CCC1C(OC(=O)Nc1ccccc1-c1ccccc1)C2` (single isomer, unassigned) [Example 11]: the Ki (in general, the dissociation constant of the complex between target and ligand, obtained from inhibition or displacement) is under 1 nM.
Same read-out and setting: the figure for `CN(C)C1C2CCC1C(OC(=O)Nc1ccccc1-c1ccccc1)C2` (racemic) [Example 1, (±)-anti-Biphenyl-2-yl-carbamic acid 7-dimethylamino-bicyclo[2.2.1]hept-2-yl ester] is under 1 nM; for `CN(C)C1C2CCC1C(OC(=O)Nc1ccccc1-c1ccccc1)C2` (single isomer, unassigned) [Example 7, syn-Biphenyl-2-yl-carbamic acid 7-dimethylamino-bicyclo[2.2.1]hept-2-yl ester] it is 1 to 10 nM.
The same measure, in the same setting: the value for `CN(C)C1C2CCC1C(OC(=O)Nc1ccccc1-c1ccccc1)C2` (single isomer, unassigned) [Example 6, syn-Biphenyl-2-yl-carbamic acid 7-dimethylamino-bicyclo[2.2.1]hept-2-yl ester] was 1 to 10 nM; that for `CN(CCCOc1ccccc1)C1C2CCC1C(OC(=O)Nc1ccccc1-c1ccccc1)C2` (single isomer, unassigned) [Example 10, anti-Biphenyl-2-yl-carbamic acid-7-[methyl-(3-phenoxy-propyl)-amino]-bicyclo[2.2.1]hept-2-yl ester] was over 10 nM.
On the same count and under the same terms, the value for `CN(C)C1C2CCC1C(OC(=O)Nc1ccccc1-c1ccccc1)C2` (single isomer, unassigned) [Example 3, anti-Biphenyl-2-yl-carbamic acid 7-dimethylamino-bicyclo[2.2.1]hept-2-yl ester] was 1 to 10 nM; that for `CN(C)C1C2CCC1C(OC(=O)Nc1ccccc1-c1ccccc1)C2` (single isomer, unassigned) [Example 2, anti-Biphenyl-2-yl-carbamic acid 7-dimethylamino-bicyclo[2.2.1]hept-2-yl ester] was under 1 nM.
Regarding `CN(CCCOc1ccccc1)C1C2CCC1C(OC(=O)C1c3ccccc3Oc3ccccc31)C2` [Example 34, anti-(1S,2R) 9H-Xanthene-9-carboxylic acid 7-[methyl-(3-phenoxy-propyl)-amino]-bicyclo[2.2.1]hept-2-yl ester], the Ki lay within 1 to 10 nM.
Still for that read-out and setting: the figure for `C[N+](C)(CCCOc1ccccc1)C1C2CCC1C(OCC(O)(c1ccccc1)c1ccccc1)C2` [Example 40, anti-(1S,2R) 2-(2-Hydroxy-2,2-diphenyl-ethoxy)-bicyclo[2.2.1]hept-7-yl]-dimethyl-(3-phenoxy-propyl)-ammonium bromide] is over 10 nM; for `C[N+](C)(C)C1C2CCC1C(OC(=O)Nc1ccccc1-c1ccccc1)C2` (racemic) [Example 8, (±)-syn-[2-(Biphenyl-2-ylcarbamoyloxy)-bicyclo[2.2.1]hept-7-yl]-trimethyl-ammonium iodide] it is 1 to 10 nM; for `CN(CCCOc1ccccc1)C1C2CCC1C(OC(=O)Nc1ccccc1-c1ccccc1)C2` (single isomer, unassigned) [Example 9, anti-Biphenyl-2-yl-carbamic acid-7-[methyl-(3-phenoxy-propyl)-amino]bicyclo[2.2.1]hept-2-yl ester] it is over 10 nM.
On the same count and under the same terms, the figure for `C[N+](C)(CCCOc1ccccc1)C1C2CCC1C(OC(=O)C1c3ccccc3Oc3ccccc31)C2` [Example 36, anti-(1S,2R) Dimethyl-(3-phenoxy-propyl)-[2-(9H-xanthene-9-carbonyloxy)-bicyclo[2.2.1]hept-7-yl]-ammonium bromide] is under 1 nM; for `C[N+](C)(CCCOc1ccccc1)C1C2CCC1C(OC(=O)Nc1ccccc1-c1ccccc1)C2` (single isomer, unassigned) [Example 12] it is under 1 nM.

The target in another test is T2, human β2 adrenergic receptor (Homo sapiens, UniProt P07550).
T2 construct: purchased
T2 sequence (P07550 whole entry): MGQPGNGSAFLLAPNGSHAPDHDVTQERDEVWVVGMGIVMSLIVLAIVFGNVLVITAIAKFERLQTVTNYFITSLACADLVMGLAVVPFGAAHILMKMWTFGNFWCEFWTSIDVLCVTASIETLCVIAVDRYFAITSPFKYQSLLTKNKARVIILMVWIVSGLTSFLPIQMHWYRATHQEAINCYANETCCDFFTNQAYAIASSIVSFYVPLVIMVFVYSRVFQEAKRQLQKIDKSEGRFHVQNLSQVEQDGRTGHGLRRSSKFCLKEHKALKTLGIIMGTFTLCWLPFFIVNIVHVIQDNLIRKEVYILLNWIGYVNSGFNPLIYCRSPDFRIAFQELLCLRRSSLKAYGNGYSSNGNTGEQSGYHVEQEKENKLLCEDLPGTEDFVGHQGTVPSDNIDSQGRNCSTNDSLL
The test can be described thus: β-Adrenergic receptor radioligand binding assay ([125I]-Iodocyanopindolol).
Settings: not given
How it is done: Radioligand binding studies utilising [^125I]-Iodocyanopindolol and commercially available cell membranes expressing the human β2 adrenergic receptor were used to assess the affinity of antagonists for β2-adrenergic receptor. Membranes and SPA-beads were incubated with [^125I]-Iodocyanopindolol and β2 antagonist at various concentrations for 3 hours at ambient temperature in TRIS buffer. The assay was performed in 96-well plates which were read using the Wallac Microbeta counter.
`CN(CCCCCCCCCNC[C@H](O)c1ccc(O)c2[nH]c(=O)ccc12)[C@H]1[C@H]2CC[C@@H]1[C@H](OC(=O)C(O)(c1cccs1)c1cccs1)C2` [Example 41, Hydroxy-di-thiophen-2-yl-acetic acid (1S,2R,4S,7S)-7-({9-[(R)-2-hydroxy-2-(8-hydroxy-2-oxo-1,2-dihydro-quinolin-5-yl)-ethylamino]-nonyl}-methyl-amino)-bicyclo[2.2.1]hept-2-yl ester] yielded a Ki of under 100 nM.

The record behind these values is patent US7994211B2, “Bicyclo[2.2.1]hept-7-ylamine derivatives and their uses” (Argenta Discovery Limited, priority 2005, dated 2011).
